In patent US20180186742A1, “PICOLINAMIDES AS FUNGICIDES” (Dow AgroSciences LLC, priority 2017, published 2018) one finds pest or weed control data, which are given here for one molecule.

Common to all, as to type: in vivo
One assay concerns Cercospora beticola. As to the kind of experiment: Leaf spot of sugar beets (CERCBE), disease control on sugar beet plants. The settings on record: 1DP test at 100 ppm, read-out: CERCBE disease control rating. How it is done: Technical grades of materials were dissolved in acetone, which were then mixed with nine volumes of water containing 110 ppm Triton X-100. The fungicide solutions were applied onto wheat seedlings using an automated booth sprayer to run-off. All sprayed plants were allowed to air dry prior to further handling. All fungicides were evaluated using the aforementioned method for their activity vs. all target diseases, unless stated otherwise. Wheat leaf blotch and brown rust activity were also evaluated using track spray applications, in which case the fungicides were formulated as EC formulations, containing 0.1% Trycol 5941 in the spray solutions. Sugar beet plants (variety HH88) were grown in soil-less Metro mix and trimmed regularly to maintain a uniform plant size prior to test. Plants were inoculated with a spore suspension 24 hr after fungicide treatments. Inoculated plants were kept in a dew chamber at 22° C. for 48 hr then incubated in a greenhouse set at 24° C. under a clear plastic hood with bottom ventilation until disease symptoms were fully expressed. Fungicide formulation, application and disease assessment on the sprayed leaves followed the procedures as described in the Example A.

The next assay deals with Puccinia triticina. As to the kind of experiment: Wheat brown rust (PUCCRT), disease control on wheat seedlings. The settings on record: low volume application at 121.5 g/H, wheat brown rust. Put shortly:
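Compounds in acetone, diluted with nine volumes of water containing 110 ppm Triton X-100, sprayed to run-off on first-leaf Yuma wheat seedlings; track-spray tests used EC formulations with 0.1% Trycol 5941. Puccinia triticina spores applied before or after treatment. Overnight dark dew room at 22° C, 100% humidity, then greenhouse at 24° C.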

A further assay relates to Alternaria solani. As to the kind of experiment: Tomato early blight (ALTESO), disease control on tomato plants. The settings on record: 1DP test at 100 ppm, read-out: ALTESO disease control rating. On the procedure: Technical grades of materials were dissolved in acetone, which were then mixed with nine volumes of water containing 110 ppm Triton X-100. The fungicide solutions were applied onto wheat seedlings using an automated booth sprayer to run-off. All sprayed plants were allowed to air dry prior to further handling. All fungicides were evaluated using the aforementioned method for their activity vs. all target diseases, unless stated otherwise. Wheat leaf blotch and brown rust activity were also evaluated using track spray applications, in which case the fungicides were formulated as EC formulations, containing 0.1% Trycol 5941 in the spray solutions. Tomato plants (variety Outdoor Girl) were propagated in soil-less Metro mix, with each pot having one plant, and used when 12 to 14 days old. Test plants were inoculated with an aqueous spore suspension of Alternaria solani 24 hr after fungicide treatments. After inoculation the plants were kept in 100% relative humidity (one day in a dark dew chamber followed by two to three days in a lighted dew chamber at 20° C.) to permit spores to germinate and infect the leaf. The plants were then transferred to a growth room at 22° C. for disease to develop. Fungicide formulation, application and disease assessment on the sprayed leaves followed the procedures as described in the Example A.

The next assay relates to Zymoseptoria tritici. Briefly: Leaf blotch of wheat (SEPTTR), disease control on wheat seedlings. The settings on record: low volume application at 121.5 g/H, wheat leaf blotch. An outline of the steps: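 Z. tritici spores were inoculated onto wheat seedlings (Yuma, first leaf emerged) either before or after treatment. Treatment was an automated spray to run-off of acetone/Triton X-100 water solutions, or a track spray of EC formulations with 0.1% Trycol 5941. Plants were held in dew chambers at 20 °C and then a greenhouse at 20 °C. First-leaf severity (0–100%) was converted to percent control against untreated plants.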

Read-outs that look alike come from different tables or passages of the source. Bounds are passed on as bounds.

For the molecule `COc1ccnc(C(=O)N[C@@H](C)C(=O)O[C@@H](C)[C@H](c2ccccc2C)C(C)C)c1OC(=O)C(C)C` [Compound 375], the pest or weed control at 100 ppm with Cercospora beticola is over 80%; in the assay on Alternaria solani, under 80%. Further, the pest or weed control at 121.5 g/ha is over 80% with Puccinia triticina (24 h, 1 Day Protectant, read-out: PUCCRT 1DP disease control, LV activity); over 80% in the assay on Puccinia triticina (72 h, 3 Day Curative, read-out: PUCCRT 3DC disease control, LV activity); under 80% in the assay on Zymoseptoria tritici (24 h, 1 Day Protectant, read-out: SEPTTR 1DP disease control, LV activity); over 80% with Zymoseptoria tritici (72 h, 3 Day Curative, read-out: SEPTTR 3DC disease control, LV activity).
